Patent US20080318861A1, “Mucosal Delivery of Stabilized Formulations of Exendin” (NASTECH PHARMACEUTICAL COMPANY INC., priority 2005, published 2008)

Key:
[1] = Physical stability by clarity (absorbance at 630 nm) on storage at 5° C.; settings: stored at 5° C. (refrigerated) for at least two weeks
Description: In vitro testing of exenatide formulations included a preservatives screen. Physical stability after storage at 5° C. was measured for all formulations tested in vitro. Exenatide formulations were placed in 1 cc glass vials and closed with trifoil lined caps and stored at 5° C. for at least two weeks. Physical stability was monitored by measuring clarity. Clarity of a formulation was determined by measuring absorbance at 630 nm, using the μQuant optical density plate reader for each formulation at days 0, 7, and 14. A 200 μL volume from each vial was placed in a 96-well plate and read against a background of water.
Varying concentrations of sodium benzoate (NaBz) and benzalkonium chloride (BAK), were screened for their effect on physical stability of the three formulations used in in vivo studies. Sodium benzoate was added at 1.0, 2.5, and 5.0 mg/mL, while BAK was tested at 0.2, 1.0, 2.0, and 4.0 mg/mL. To prepare the samples, varying amounts of stock solutions of the two preservatives were added to the three prepared formulations dosed in the PK study. […] The resulting formulations were stored at 5° C. for 5.5 weeks. Physical stability was monitored by measuring the absorbance of the solution at 630 nm.
Sodium benzoate was added at concentrations of 1.0 to 5.0 mg/mL, while BAK was tested at 0.05, 0.075, and 0.1 mg/mL. To prepare the samples, varying amounts of stock solutions of the two preservatives were added to the formulations prepared in the PK study and the pH was adjusted to 4.5 with HCl as necessary. The resulting formulations were stored at 5° C. for 4 weeks. Physical stability was monitored by measuring the absorbance of the solution at […].
The second formulation lacked any buffer to test the effect of the buffer itself on physical stability.

[2] = tested on: normal, human-derived tracheal/bronchial epithelial cells (EpiAirway Tissue Model); assay: MTT cell viability assay; assay type: cell-based; settings: for toxicity / cell viability in excipient screening (in words): cell viability as measured by LDH and MTT, exenatide formulation containing the named excipient
Excerpt: The extraction plate was covered and scaled to reduce evaporation of extractant.

[3] = tested on: epithelial tissue barrier (EpiAirway Tissue Model); assay: In vitro permeation of exenatide across the cellular barrier (EIA analysis); settings: for exenatide permeation (in words): compared with AKL-225-126-2 or control without enhancers
Excerpt: Initial studies focused on optimizing the concentrations of Me-β-CD, DDPC, EDTA, and gelatin to enhance exenatide permeation across an epithelial tissue layer.
A second round of studies, series B, systematically screened several excipients for their potential to enhance exenatide permeation to a greater degree than the Me-β-CD, DDPC, EDTA, and gelatin combinations. […] Initially, each excipient (except for those classified as “generally regarded as safe” (GRAS) by the FDA, recombinant gelatins, and PN159), was tested at two concentrations or in combination with Me-β-CD, DDPC, or EDTA. As with series A formulations, each formulation was evaluated for exenatide permeation, ability to reduce TER while not adversely affecting cell viability, and formulation physical stability.

[4] = tested on: normal, human-derived tracheal/bronchial epithelial cells (EpiAirway Tissue Model); assay: Transepithelial electrical resistance (TER) in the in vitro nasal epithelial model; assay type: cell-based; settings: 60 min exposure
Description: A cell line from MatTek Corp. (Ashland, Mass.) was used as the source of normal, human-derived tracheal/bronchial epithelial cells (EpiAirway™ Tissue Model). […] The cells were provided as inserts grown to confluence on Millipore Milicell-CM filters comprised of transparent hydrophilic Teflon (PTFE). […] TER measurements were accomplished using the Endohm-12 Tissue Resistance Measurement Chamber connected to the EVOM Epithelial Voltohmmeter (World Precision Instruments, Sarasota, Fla.) with the electrode leads. The electrodes and a tissue culture blank insert were equilibrated for at least twenty (20) minutes in phosphate buffered solution with the power off prior to checking calibration. The background resistance was measured with 1.5 mL media in the Endohm tissue chamber and 300 μL media in a blank Millicell-CM insert. […] The background resistance of the blank insert was 5-12 ohms.
TER was measured before and after the sixty (60) minute incubation. […] After the 60 minute incubation with test samples, 200 μL of fresh media was gently added to the apical surface of each test sample insert and final TER was measured for each insert. […] Resistance is expressed as follows: (resistance measured−blank)×0.6 cm^2.

[5] = tested on: normal, human-derived tracheal/bronchial epithelial cells (EpiAirway Tissue Model); assay: Lactate dehydrogenase (LDH) cytotoxicity assay; assay type: cell-based
Description: The amount of cell death was assayed by measuring the loss of lactate dehydrogenase (LDH) from the cells using a CytoTox 96 Cytoxicity Assay Kit (Promega Corp., Madison, Wis.). Fresh, cell-free culture medium was used as a blank. 50 μl harvested media (stored at 4° C.) was loaded in a 96-well plate. Substrate Solution (50 μl) was added to each well and the plates were incubated for thirty (30) minutes at ambient temperature in the dark. Following incubation, 50 μl of Stop Solution was added to each well and the reaction was monitored at A490 using an optical density plate reader. Media alone applied to the apical side served as a negative control while triton X served as the positive control for the LDH assay.

Compound: OC[C@H]1O[C@@H]2O[C@H]3[C@H](O)[C@@H](O)[C@@H](O[C@H]4[C@H](O)[C@@H](O)[C@@H](O[C@H]5[C@H](O)[C@@H](O)[C@@H](O[C@H]6[C@H](O)[C@@H](O)[C@@H](O[C@H]7[C@H](O)[C@@H](O)[C@@H](O[C@H]8[C@H](O)[C@@H](O)[C@@H](O[C@H]1[C@H](O)[C@H]2O)O[C@@H]8CO)O[C@@H]7CO)O[C@@H]6CO)O[C@@H]5CO)O[C@@H]4CO)O[C@@H]3CO [β-cyclodextrin]
- physical stability (clarity) [1]: became turbid at refrigerated conditions

Compound: CCCCCCCCC(=O)OC[C@H](COP(=O)([O-])OCC[N+](C)(C)C)OC(=O)CCCCCCCC [dinonanoyl glycero phosphatidylcholine]
- physical stability (clarity) [1]: becoming turbid in less than two weeks at refrigerated conditions

Compound: dimethyl-β-cyclodextrin [DMe-β-CD]
- toxicity / cell viability in excipient screening (in words) [2]: more toxic to the cells than Me-β-CD
- fold increase in exenatide permeation over AKL-225-126-2 ([3]; full dose volume (100 µL)): 1.5 fold

Compound: CCCCCCCC/C=C\CCCCCCCC(=O)O [oleic acid]
- toxicity / cell viability in excipient screening (in words) [2]: lowered cell viability

Compound: C[C@H](CCC(=O)NCC(=O)[O-])[C@H]1CC[C@H]2[C@@H]3[C@H](O)C[C@@H]4C[C@H](O)CC[C@]4(C)[C@H]3C[C@H](O)[C@]12C.[Na+] [Sodium glycocholate, sodium glycocholate]
- physical stability (clarity) [1]: physically instable at high concentrations

Compound: triton X
- TER reduction (in words) [4]: lowest possible TER
- cytotoxicity as measured by % LDH (in words) [5]: significant toxicity
- cytotoxicity as measured by % MTT (in words) [2]: significant toxicity

Compound: O=C(O)CN(CCN(CC(=O)O)CC(=O)O)CC(=O)O [EDTA]
- toxicity / cell viability in excipient screening (in words) [2]: cell viability began to decrease

Compound: CC(O)CO (stereo not shown) [propylene glycol]
- exenatide permeation (in words) [3]: failed to enhance permeation at all

Compound: CCCCCCCCCCCCCCCC(=O)OC(CC(=O)[O-])C[N+](C)(C)C (racemic) [Palmitoyl-DL-carnitine, palmitoyl-DL-carnitine]
- toxicity / cell viability in excipient screening (in words) [2]: toxic at high concentrations
- physical stability (clarity) [1]: physically instable without Me-β-CD

Compound: Tween-80
- exenatide permeation (in words) [3]: failed to enhance exenatide permeation to the same extent as formulation AKL-225-126-2

Compound: CCCCCCCCO[C@@H]1O[C@H](CO)[C@H](O)[C@H](O)[C@H]1O [galactopyranoside, n-Octyl-β-D-galactopyranoside]
- toxicity / cell viability in excipient screening (in words) [2]: toxic at 10 mg/mL

Compound: CCO [ethanol]
- exenatide permeation (in words) [3]: did not enhance exenatide permeation

Compound: CCCCCCCCCC(=O)[O-].[Na+] [sodium caprate]
- toxicity / cell viability in excipient screening (in words) [2]: low cell viability at 50 mM alone
- physical stability (clarity) [1]: physical instability in the absence of Me-β-CD

Compound: CCCCCCCC(=O)[O-].[Na+] [sodium caprylate]
- toxicity / cell viability in excipient screening (in words) [2]: toxic at 20 mM with Me-β-CD and EDTA
- exenatide permeation (in words) [3]: failed to enhance exenatide permeation to any extent alone or with permeation enhancers
- physical stability (clarity) [1]: physical instability in the absence of Me-β-CD

Compound: hydroxypropyl-β-cyclodextrin [H-β-CD]
- exenatide permeation (in words) [3]: did not increase permeation significantly
